ChEMBL document CHEMBL2346565, “Syntheses and biological evaluation of 1-heteroaryl-2-aryl-1H-benzimidazole derivatives as c-Jun N-terminal kinase inhibitors with neuroprotective effects” (Bioorg Med Chem, 2013)
pIC50, pKd: −log10 of the molar value. One block for each molecule: values may come before it.

How the values were obtained:
[1] = molecular target: T1, Mitogen-activated protein kinase 10 (Homo sapiens, UniProt P53779); test: Inhibition of JNK3 in human PBMCs assessed as decrease in LPS-induced TNFalpha mRNA level after 4 hrs by real-time reverse transcription-PCR analysis
[2] = molecular target: T1, Mitogen-activated protein kinase 10; test: Binding affinity to N-terminal His6X-tagged human recombinant JNK3 catalytic domain expressed in Escherichia coli BL21 (DE3) by surface plasmon resonance analysis
[3] = molecular target: T1, Mitogen-activated protein kinase 10; test: Competitive inhibition of JNK3 (unknown origin) in presence of ATP
[4] = molecular target: Mitogen-activated protein kinase 9 (Homo sapiens, UniProt P45984); test: Competitive inhibition of JNK2 (unknown origin) in presence of ATP
Mitogen-activated protein kinase 9, sequence (P45984 whole entry): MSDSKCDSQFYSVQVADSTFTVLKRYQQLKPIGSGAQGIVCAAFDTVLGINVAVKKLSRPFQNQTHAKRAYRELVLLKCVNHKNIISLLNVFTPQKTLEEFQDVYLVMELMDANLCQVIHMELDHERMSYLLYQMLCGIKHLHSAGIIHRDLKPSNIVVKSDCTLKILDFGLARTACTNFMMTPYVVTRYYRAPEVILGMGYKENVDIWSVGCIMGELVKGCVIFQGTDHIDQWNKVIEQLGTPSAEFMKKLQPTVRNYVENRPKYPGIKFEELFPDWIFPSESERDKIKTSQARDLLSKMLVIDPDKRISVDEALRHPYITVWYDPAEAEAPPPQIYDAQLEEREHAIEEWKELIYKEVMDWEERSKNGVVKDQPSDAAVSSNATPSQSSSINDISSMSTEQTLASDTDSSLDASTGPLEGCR

T1 sequence (P53779 whole entry, the tested form may be a part): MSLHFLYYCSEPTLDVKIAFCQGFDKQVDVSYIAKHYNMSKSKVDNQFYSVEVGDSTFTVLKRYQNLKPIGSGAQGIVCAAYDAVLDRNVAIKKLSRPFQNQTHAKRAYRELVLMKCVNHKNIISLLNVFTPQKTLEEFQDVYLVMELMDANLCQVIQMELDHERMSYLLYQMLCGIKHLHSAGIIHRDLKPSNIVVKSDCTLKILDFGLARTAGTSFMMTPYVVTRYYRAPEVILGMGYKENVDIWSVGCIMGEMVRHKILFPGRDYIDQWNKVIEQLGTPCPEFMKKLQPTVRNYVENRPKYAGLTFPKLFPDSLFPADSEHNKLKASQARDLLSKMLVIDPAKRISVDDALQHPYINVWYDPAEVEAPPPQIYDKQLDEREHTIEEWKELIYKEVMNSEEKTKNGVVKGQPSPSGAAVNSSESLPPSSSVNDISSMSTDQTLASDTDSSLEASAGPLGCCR

pIC50 [1]: 5.00 | inhibition [1]: Dose-dependent effect
Structure (SMILES): Oc1c2ccccc2c2c3c(cccc13)N=N2 [SP-600125]

pKd [2]: 4.74
Structure (SMILES): COc1ccc2c(c1)nc(-c1ccc(C)c(Cl)c1)n2-c1ccnc(NC2CCCCC2)c1

pIC50 [3]: 5.73 | pIC50 [4]: 5.66
Structure (SMILES): Oc1cccc(-c2nc3ccccc3n2-c2ccnc(N[C@@H]3CCCNC3)c2)c1
